Converted amounts (≈) assume the structure as drawn.
How the values were obtained:
Test in all cases: Minimum inhibitory concentration, standard method of the Japan Society of Chemotherapy
Type in all cases: cell-based
[1] = tested on: E. coli NIH JC-2 (IFO 12734); settings: Escherichia coli, IFO12734
Experimental: (§1) With respect to certain representative compounds among the compounds [I] of the present invention, their minimum inhibitory concentrations (MIC; μg/ml) were measured in accordance with the standard method established by the Japan Society of Chemotherapy [CHEMOTHERAPY, 29(1), 76-79 (1981)]. The results are summarized in Table 1, in which the compound numbers are as shown in examples.

[2] = tested on: S. aureus 209 P (IFO 12732); settings: Staphylococcus aureus, IFO12732
Experimental: as §1

P. aeruginosa (IFO 3445) = settings: Pseudomonas aeruginosa, IFO3445
Experimental: as §1

MIC [1] [µg/mL] | MIC [2] [µg/mL] | MIC (P. aeruginosa (IFO 3445)) [µg/mL] | SMILES
1.56 (≈ 3.95 µM) | 3.13 (≈ 7.92 µM) | 6.25 (≈ 15.8 µM) | CO[C@@H]1CN(c2c(F)cc3c(=O)c(C(=O)O)cn(C4COC4)c3c2F)C[C@H]1N (relative stereo) [Compound 85]
0.39 (≈ 0.95 µM) | 1.56 (≈ 3.8 µM) | 3.13 (≈ 7.63 µM) | CO[C@@H]1CN(c2c(F)c(N)c3c(=O)c(C(=O)O)cn(C4COC4)c3c2F)C[C@H]1N (relative stereo) [Compound 86]
0.78 (≈ 2.06 µM) | 6.25 (≈ 16.5 µM) | 3.13 (≈ 8.27 µM) | CO[C@@H]1CN(c2nc3c(cc2F)c(=O)c(C(=O)O)cn3C2COC2)C[C@H]1N (relative stereo) [Compound 88]
0.78 (≈ 1.97 µM) | 1.56 (≈ 3.95 µM) | 3.13 (≈ 7.92 µM) | CO[C@H]1CN(c2c(F)cc3c(=O)c(C(=O)O)cn(C4COC4)c3c2F)C[C@H]1N (relative stereo) [Compound 89]
0.2 (≈ 0.508 µM) | 0.78 (≈ 1.98 µM) | 1.56 (≈ 3.97 µM) | CN[C@@H]1CN(c2c(F)cc3c(=O)c(C(=O)O)cn(C4COC4)c3c2F)C[C@H]1C (relative stereo) [Compound 91]
0.1 (≈ 0.245 µM) | 0.39 (≈ 0.955 µM) | 1.56 (≈ 3.82 µM) | CN[C@@H]1CN(c2c(F)c(N)c3c(=O)c(C(=O)O)cn(C4COC4)c3c2F)C[C@H]1C (relative stereo) [Compound 92]
0.78 (≈ 1.98 µM) | 1.56 (≈ 3.97 µM) | 3.13 (≈ 7.96 µM) | CN[C@@H]1CN(c2c(F)cc3c(=O)c(C(=O)O)cn(C4COC4)c3c2F)C[C@@H]1C (relative stereo) [Compound 93]
0.2 (≈ 0.49 µM) | 0.78 (≈ 1.91 µM) | 1.56 (≈ 3.82 µM) | CN[C@@H]1CN(c2c(F)c(N)c3c(=O)c(C(=O)O)cn(C4COC4)c3c2F)C[C@@H]1C (relative stereo) [Compound 94]
0.39 | 0.78 | 1.56 | C[C@@H]1CN(c2c(F)cc3c(=O)c(C(=O)O)cn(C4COC4)c3c2F)C[C@H]1N.O=C(O)C(F)(F)F (relative stereo) [Compound 97, 7-(Trans-3-amino-4-methylpyrrolidin-1-yl)-6,8-difluoro-1-(oxetan-3-yl)-1,4-dihydro-4-oxoquinoline-3-carboxylic acid trifluoroacetic acid salt]
0.1 (≈ 0.254 µM) | 0.2 (≈ 0.507 µM) | 0.78 (≈ 1.98 µM) | C[C@@H]1CN(c2c(F)c(N)c3c(=O)c(C(=O)O)cn(C4COC4)c3c2F)C[C@H]1N (relative stereo) [Compound 101]
0.1 (≈ 0.264 µM) | 0.39 (≈ 1.03 µM) | 0.78 (≈ 2.06 µM) | C[C@H]1CN(c2c(F)cc3c(=O)c(C(=O)O)cn(C4COC4)c3c2F)C[C@H]1N (relative stereo) [Compound 102]
0.39 (≈ 1.11 µM) | 0.2 (≈ 0.571 µM) | 1.56 (≈ 4.45 µM) | O=C(O)c1cn(C2COC2)c2c(F)c(N3CCCC3)c(F)cc2c1=O [Compound 4, 6,8-Difluoro-1-(oxetan-3-yl)-7-(pyrrolidin-1-yl)-1,4-dihydro-4-oxoquinoline-3-carboxylic acid]
0.39 (≈ 1.12 µM) | 0.39 (≈ 1.12 µM) | 6.25 (≈ 17.9 µM) | O=C(O)c1cn(C2COC2)c2c(F)c(N3CC=CC3)c(F)cc2c1=O [Compound 5]
0.78 (≈ 2.13 µM) | 0.78 (≈ 2.13 µM) | 6.25 (≈ 17.1 µM) | O=C(O)c1cn(C2COC2)c2c(F)c(N3CCOCC3)c(F)cc2c1=O [Compound 6]
0.78 (≈ 2.04 µM) | 0.39 (≈ 1.02 µM) | 3.13 (≈ 8.19 µM) | O=C(O)c1cn(C2COC2)c2c(F)c(N3CCSCC3)c(F)cc2c1=O [Compound 7]
0.39 (≈ 0.979 µM) | 0.2 (≈ 0.502 µM) | 3.13 (≈ 7.86 µM) | O=C(O)c1cn(C2COC2)c2c(F)c(N3Cc4ccccc4C3)c(F)cc2c1=O [Compound 9]
0.2 (≈ 0.527 µM) | 1.56 (≈ 4.11 µM) | 1.56 (≈ 4.11 µM) | CN1CCN(c2c(F)cc3c(=O)c(C(=O)O)cn(C4COC4)c3c2F)CC1 [Compound 11]

MIC [1] [µg/mL] | MIC [2] [µg/mL] | MIC (P. aeruginosa (IFO 3445)) [µg/mL] | SMILES
0.2 (≈ 0.527 µM) | 1.56 (≈ 4.11 µM) | 1.56 (≈ 4.11 µM) | CC1CN(c2c(F)cc3c(=O)c(C(=O)O)cn(C4COC4)c3c2F)CCN1 (stereo not drawn) [Compound 13]
0.2 (≈ 0.508 µM) | 3.13 (≈ 7.96 µM) | 3.13 (≈ 7.96 µM) | CC1CN(c2c(F)cc3c(=O)c(C(=O)O)cn(C4COC4)c3c2F)CC(C)N1 (stereo not drawn) [Compound 14]
0.78 (≈ 2.05 µM) | 0.39 (≈ 1.03 µM) | 6.25 (≈ 16.4 µM) | O=C(O)c1cn(C2COC2)c2c(F)c(N3CCC(O)CC3)c(F)cc2c1=O [Compound 15]
0.39 (≈ 1.06 µM) | 0.78 (≈ 2.13 µM) | 1.56 (≈ 4.26 µM) | O=C(O)c1cn(C2COC2)c2c(F)c(N3CCC(O)C3)c(F)cc2c1=O (stereo not drawn) [Compound 16]
0.78 (≈ 2.21 µM) | 3.13 (≈ 8.88 µM) | 6.25 (≈ 17.7 µM) | O=C(O)c1cn(C2COC2)c2c(F)c(N3CC(O)C3)c(F)cc2c1=O [Compound 17]
0.39 (≈ 1.07 µM) | 1.56 (≈ 4.27 µM) | 1.56 (≈ 4.27 µM) | NC1CCN(c2c(F)cc3c(=O)c(C(=O)O)cn(C4COC4)c3c2F)C1 (stereo not drawn) [Compound 18]
0.2 (≈ 0.508 µM) | 1.56 (≈ 3.97 µM) | 3.13 (≈ 7.96 µM) | CN(C)C1CCN(c2c(F)cc3c(=O)c(C(=O)O)cn(C4COC4)c3c2F)C1 (stereo not drawn) [Compound 19]
1.56 (≈ 4.11 µM) | 0.2 (≈ 0.527 µM) | 3.13 (≈ 8.25 µM) | NCC1CCN(c2c(F)cc3c(=O)c(C(=O)O)cn(C4COC4)c3c2F)C1 (stereo not drawn) [Compound 20]
6.25 (≈ 15.8 µM) | 0.78 (≈ 1.97 µM) | > 25 | NCC1CN(c2c(F)cc3c(=O)c(C(=O)O)cn(C4COC4)c3c2F)CCO1 (stereo not drawn) [Compound 22]
0.39 (≈ 1.07 µM) | 0.2 (≈ 0.547 µM) | 3.13 (≈ 8.57 µM) | Nc1c(F)c(N2CCCC2)c(F)c2c1c(=O)c(C(=O)O)cn2C1COC1 [Compound 27, 5-Amino-6,8-difluoro-1-(oxetan-3-yl)-7-(pyrrolidin-1-yl)-1,4-dihydro-4-oxoquinoline-3-carboxylic acid]
0.78 (≈ 1.96 µM) | 0.78 (≈ 1.96 µM) | 6.25 (≈ 15.7 µM) | Nc1c(F)c(N2CCSCC2)c(F)c2c1c(=O)c(C(=O)O)cn2C1COC1 [Compound 28]
0.78 (≈ 1.89 µM) | 0.2 (≈ 0.484 µM) | 3.13 (≈ 7.57 µM) | Nc1c(F)c(N2Cc3ccccc3C2)c(F)c2c1c(=O)c(C(=O)O)cn2C1COC1 [Compound 30]
0.2 (≈ 0.526 µM) | 0.39 (≈ 1.03 µM) | 0.78 (≈ 2.05 µM) | Nc1c(F)c(N2CCC(N)C2)c(F)c2c1c(=O)c(C(=O)O)cn2C1COC1 (stereo not drawn) [Compound 31]
0.78 (≈ 1.98 µM) | 0.1 (≈ 0.254 µM) | 3.13 (≈ 7.94 µM) | NCC1CCN(c2c(F)c(N)c3c(=O)c(C(=O)O)cn(C4COC4)c3c2F)C1 (stereo not drawn) [Compound 32]
0.2 (≈ 0.553 µM) | 1.56 (≈ 4.32 µM) | 3.13 (≈ 8.66 µM) | CN1CCN(c2cc3c(cc2F)c(=O)c(C(=O)O)cn3C2COC2)CC1 [Compound 35, 6-Fluoro-7-(4-methylpiperazin-1-yl)-1-(oxetan-3-yl)-1,4-dihydro-4-oxoquinoline-3-carboxylic acid]
0.39 (≈ 1.12 µM) | 1.56 (≈ 4.49 µM) | 1.56 (≈ 4.49 µM) | NC1CCN(c2cc3c(cc2F)c(=O)c(C(=O)O)cn3C2COC2)C1 (stereo not drawn) [Compound 37]
3.13 (≈ 8.66 µM) | 0.39 (≈ 1.08 µM) | 12.5 (≈ 34.6 µM) | NCC1CCN(c2cc3c(cc2F)c(=O)c(C(=O)O)cn3C2COC2)C1 (stereo not drawn) [Compound 38]

SMILES | MIC [1] [µg/mL] | MIC [2] [µg/mL] | MIC (P. aeruginosa (IFO 3445)) [µg/mL]
C[C@H]1CN(c2c(F)c(N)c3c(=O)c(C(=O)O)cn(C4COC4)c3c2F)C[C@H]1N (relative stereo) [Compound 103] | 0.1 (≈ 0.254 µM) | 0.2 (≈ 0.507 µM) | 0.39 (≈ 0.989 µM)
O=C(O)c1cn(C2COC2)c2c(F)c(N3CCNCC3)c(F)cc2c1=O [Compound 12] | 0.2 (≈ 0.547 µM) | 1.56 (≈ 4.27 µM) | 1.56 (≈ 4.27 µM)
O=C(O)c1cn(C2COC2)c2cc(N3CCNCC3)c(F)cc2c1=O [Compound 36] | 0.39 (≈ 1.12 µM) | 3.13 (≈ 9.01 µM) | 3.13 (≈ 9.01 µM)

— patent US5407932A, “Quinolone derivatives and antibacterial agents containing the same” (Wakunaga Seiyaku Kabushiki Kaisha, priority 1989, dated 1995)
